These results are taken from ChEMBL document CHEMBL5390254, “Discovery and Optimization of Novel hDHODH Inhibitors for the Treatment of Inflammatory Bowel Disease” (J Med Chem, 2023).

Data set [1] can be described thus: 1-octanol/water partition coefficient, logP of the compound at 2 mg by UPLC analysis. Format: physicochemical.
Data set [2] can be described thus: Metabolic stability in mouse liver microsomes assessed as half life at 3 uM incubated upto 90 mins in presence of NADPH by LC-MS/MS analysis. In kind it is ADME, Microsome.
Data set [3] can be described thus: Metabolic stability in human liver microsomes assessed as intrinsic clearance at 3 uM incubated upto 90 mins in presence of NADPH by LC-MS/MS analysis. Format: ADME, Microsome. The settings on record: read-out: CLH. For orientation: Liver microsomes are vesicles of endoplasmic reticulum, rich in cytochrome P450 enzymes.
Data set [4] can be described thus: Metabolic stability in rat liver microsomes assessed as intrinsic clearance at 3 uM incubated upto 90 mins in presence of NADPH by LC-MS/MS analysis. In kind it is ADME, Microsome. The settings on record: read-out: CLH.
The nature of data set [5]: Metabolic stability in mouse liver microsomes assessed as intrinsic clearance at 3 uM incubated upto 90 mins in presence of NADPH by LC-MS/MS analysis. The conditions noted are these: read-out: CLH. Format: ADME, Microsome.
The nature of data set [6]: Metabolic stability in human liver microsomes assessed as half life at 3 uM incubated upto 90 mins in presence of NADPH by LC-MS/MS analysis. In kind it is ADME, Microsome.
Data set [7] in a line: Metabolic stability in rat liver microsomes assessed as half life at 3 uM incubated upto 90 mins in presence of NADPH by LC-MS/MS analysis. In kind it is ADME, Microsome.
The subject of data set [8] is Mus musculus. Description: Anti-inflammatory activity against DSS-induced acute ulcerative colitis in C57BL/6 mouse model assessed as increase in colon length at 80 mg/kg, po QD for 6 days (Rvb= 5.3cm). Format: functional. The conditions noted are these: time 6 day.
For data set [9], the system named is Mus musculus. Description: Anti-inflammatory activity against DSS-induced acute ulcerative colitis in C57BL/6 mouse model assessed as decrease in IL-1beta production in colon at 40 mg/kg, po QD for 6 days by ELISA. Format: functional. The conditions noted are these: time 6.0 day. Background: In an ELISA, binding on a coated surface is turned into a signal by an enzyme label.

Data set [10] relates to Mus musculus. Description: Anti-inflammatory activity against DSS-induced acute ulcerative colitis in C57BL/6 mouse model assessed as decrease in IL-17 mRNA expression level in colon at 40 mg/kg, po QD for 6 days by RT-PCR analysis. Format: functional, organism-based. The settings on record: time 6.0 day.
The test system of data set [11] is Mus musculus. The experiment in a line: Anti-inflammatory activity against DSS-induced acute ulcerative colitis in C57BL/6 mouse model assessed as decrease in IL-6 production in colon at 40 mg/kg, po QD for 6 days by ELISA. Format: functional. The settings on record: time 6.0 day.
Data set [12] relates to Mus musculus. The experiment in a line: Anti-inflammatory activity against DSS-induced acute ulcerative colitis in C57BL/6 mouse model assessed as decrease in body weight loss at 80 mg/kg, po QD for 6 days (Rvb= -13.4%). Format: functional. The conditions noted are these: time 6 day. Also noted: scale not given: the % may be the effect or the level left.
Data set [13] concerns Mus musculus. The experiment in a line: Anti-inflammatory activity against DSS-induced acute ulcerative colitis in C57BL/6 mouse model assessed as decrease in IL-1beta mRNA expression level in colon at 40 mg/kg, po QD for 6 days by RT-PCR analysis. Format: functional, organism-based. The settings on record: time 6.0 day.
The subject of data set [14] is Mus musculus. Description: Anti-inflammatory activity against DSS-induced acute ulcerative colitis in C57BL/6 mouse model assessed as decrease in colon tissue damage score at 40 mg/kg, po QD for 6 days relative to DSS group. Format: functional. More on the design: scale not given: the % may be the effect or the level left. The conditions noted are these: time 6 day.

Data set [15] concerns Mus musculus. Description: Anti-inflammatory activity against DSS-induced acute ulcerative colitis in C57BL/6 mouse model assessed as decrease in IL-17 production in colon at 40 mg/kg, po QD for 6 days by ELISA. Format: functional. The settings on record: time 6.0 day.
The subject of data set [16] is Mus musculus. The experiment in a line: Anti-inflammatory activity against DSS-induced acute ulcerative colitis in C57BL/6 mouse model assessed as decrease in IL-6 mRNA expression level in colon at 40 mg/kg, po QD for 6 days by RT-PCR analysis. Format: functional, organism-based. The conditions noted are these: time 6.0 day.
The test system of data set [17] is Mus musculus. The experiment in a line: Anti-inflammatory activity against DSS-induced acute ulcerative colitis in C57BL/6 mouse model assessed as decrease in colon length shortening at 40 mg/kg, po QD for 6 days (Rvb= 5.5cm). Format: functional. The conditions noted are these: time 6 day.

Calls of active or inactive are those of the source. The rule behind the calls is not given here.

By logP is commonly meant a log measure of how a compound divides between an organic and an aqueous phase. A word on the half-life: it is the time in which the quantity being followed falls by half.

In data set [1], `Nc1nc(-c2cn(Cc3c(F)cccc3F)c3ncccc23)ncc1C1CC1` returned a lipophilicity (logP) of 5.1.

Regarding `Nc1nc(-c2nn(Cc3ccccc3F)c3ncccc23)ncc1C1CC1`, the half-life at 3 µM was 30.8 min in data set [2], 38.1 min in data set [6] and 24.5 min in data set [7]. In addition, the CLint scaled at 3 µM in data set [3] stood at 45.7 mL/min/kg; in data set [4], 101 mL/min/kg; in [5], 177 mL/min/kg.

Regarding `C[C@@H]1CCN(C(=O)CC#N)C[C@@H]1N(C)c1ncnc2[nH]ccc12` [TOFACITINIB], the Activity in [8] is recorded as 6.7 cm; in [12] it was -3.9%; in data set [14], 45.45%; in [17], 6.3 cm. Also, the result in [9], in data set [10], in [11], in data set [13], in data set [15] and in data set [16] was Active.
